Source: patent publication US7943770B2, “Fused quinoline derivative and use thereof” (Takeda Pharmaceutical Company Limited, priority 2004, dated 2011)

Target: T1, hNK2 receptor (Homo sapiens, UniProt P21452)
T1 construct: host or cells: CHO cells
T1 sequence (P21452 1-398): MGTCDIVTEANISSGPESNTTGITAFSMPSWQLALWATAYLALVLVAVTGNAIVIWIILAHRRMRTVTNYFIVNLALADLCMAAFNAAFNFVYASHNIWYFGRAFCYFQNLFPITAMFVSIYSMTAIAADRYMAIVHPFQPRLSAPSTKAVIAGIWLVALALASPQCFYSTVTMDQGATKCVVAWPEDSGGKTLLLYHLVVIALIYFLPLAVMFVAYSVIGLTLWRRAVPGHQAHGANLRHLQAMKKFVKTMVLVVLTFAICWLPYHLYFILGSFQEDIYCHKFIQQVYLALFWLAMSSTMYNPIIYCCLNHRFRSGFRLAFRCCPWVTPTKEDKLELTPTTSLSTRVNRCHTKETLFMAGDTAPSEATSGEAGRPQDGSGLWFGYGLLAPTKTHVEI
Test: Radio-ligand ([125I]-NKA) receptor binding inhibitory activity using membrane fraction of hNK2 receptor-expressing CHO cell
Settings: membrane fraction of hNK2 receptor-expressing CHO cells, 25° C., 30 min
In short: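 Membranes from hNK2-expressing CHO cells (20 μg/mL suspension) incubated with test compound and [125I]-NKA ([…] solution as added) in Tris-HCl pH 7.4 with BSA, protease inhibitors, 3 mM MnCl2, 25 °C, 30 min. Bound radioactivity by GF/C filtration and scintillation; inhibition expressed relative to specific binding (total minus unlabeled-NKA non-specific).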

Row | Structure (SMILES) | IC50 [nM]
1 | CCNC(=O)N[C@@H]1CCCC[C@@H]1C(=O)N1CC[C@@H]2[C@H](c3ccccc3)Nc3ccccc3[C@@H]21 [Example 151, N-Ethyl-N′-((1R,2S)-2-{[(3aR,4R,9bR)-4-phenyl-2,3,3a,4,5,9b-hexahydro-1H-pyrrolo[3,2-c]quinolin-1-yl]carbonyl}cyclohexyl)urea] | < 10
2 | CC(C)NC(=O)N[C@@H]1CCCC[C@@H]1C(=O)N1CC[C@@H]2[C@H](c3ccccc3)Nc3ccccc3[C@@H]21 [Example 152, N-Isopropyl-N′-((1R,2S)-2-{[(3aR,4R,9bR)-4-phenyl-2,3,3a,4,5,9b-hexahydro-1H-pyrrolo[3,2-c]quinolin-1-yl]carbonyl}cyclohexyl)urea] | < 10
3 | CCOC(=O)CCNC(=O)N[C@@H]1CCCC[C@@H]1C(=O)N1CC[C@@H]2[C@H](c3ccccc3)Nc3ccccc3[C@@H]21 [Example 155, Ethyl N-{[((1R,2S)-2-{[(3aR,4R,9bR)-4-phenyl-2,3,3a,4,5,9b-hexahydro-1H-pyrrolo[3,2-c]quinolin-1-yl]carbonyl}cyclohexyl)amino]carbonyl}-beta-alaninate] | < 10
4 | O=C(NCCCO)N[C@@H]1CCCC[C@@H]1C(=O)N1CC[C@@H]2[C@H](c3ccccc3)Nc3ccccc3[C@@H]21 [Example 156, N-(3-Hydroxypropyl)-N′-((1R,2S)-2-{[(3aR,4R,9bR)-4-phenyl-2,3,3a,4,5,9b-hexahydro-1H-pyrrolo[3,2-c]quinolin-1-yl]carbonyl}cyclohexyl)urea] | < 10
5 | CCOC(=O)c1ccc(NC(=O)N[C@@H]2CCCC[C@@H]2C(=O)N2CC[C@@H]3[C@H](c4ccccc4)Nc4ccccc4[C@@H]32)cc1 [Example 159, Ethyl 4-({[((1R,25)-2-{[(3aR,4R,9bR)-4-phenyl-2,3,3a,4,5,9b-hexahydro-1H-pyrrolo[3,2-c]quinolin-1-yl]carbonyl}cyclohexyl)amino]carbonyl}amino)benzoate] | < 10

Continued, values first:

Row | IC50 [nM] | Structure (SMILES)
6 | < 10 | N#Cc1ccc(NC(=O)N[C@@H]2CCCC[C@@H]2C(=O)N2CC[C@@H]3[C@H](c4ccccc4)Nc4ccccc4[C@@H]32)cc1 [Example 147, N-(4-Cyanophenyl)-N′-((1R,2S)-2-{[(3aR,4R,9bR)-4-phenyl-2,3,3a,4,5,9b-hexahydro-1H-pyrrolo[3,2-c]quinolin-1-yl]carbonyl}cyclohexyl)urea]
7 | < 1 | O=C(Nc1ccc2c(c1)OCO2)N[C@@H]1CCCC[C@@H]1C(=O)N1CC[C@@H]2[C@H](c3ccccc3)Nc3ccccc3[C@@H]21 [Example 148, N-1,3-Benzodioxol-5-yl-N′-((1R,2S)-2-{[(3aR,4R,9bR)-4-phenyl-2,3,3a,4,5,9b-hexahydro-1H-pyrrolo[3,2-c]quinolin-1-yl]carbonyl}cyclohexyl)urea]
8 | < 10 | O=C(NC1CCCCC1)N[C@@H]1CCCC[C@@H]1C(=O)N1CC[C@@H]2[C@H](c3ccccc3)Nc3ccccc3[C@@H]21 [Example 149, N-Cyclohexyl-N′-((1R,2S)-2-{[(3aR,4R,9bR)-4-phenyl-2,3,3a,4,5,9b-hexahydro-1H-pyrrolo[3,2-c]quinolin-1-yl]carbonyl}cyclohexyl)urea]
9 | < 10 | CC(C)c1ccc(NC(=O)N[C@@H]2CCCC[C@@H]2C(=O)N2CC[C@@H]3[C@H](c4ccccc4)Nc4ccccc4[C@@H]32)cc1 [Example 150, N-(4-Isopropylphenyl)-N′-((1R,2S)-2-{[(3aR,4R,9bR)-4-phenyl-2,3,3a,4,5,9b-hexahydro-1H-pyrrolo[3,2-c]quinolin-1-yl]carbonyl}cyclohexyl)urea]
10 | < 1 | CCCCNC(=O)N[C@@H]1CCCC[C@@H]1C(=O)N1CC[C@@H]2[C@H](c3ccccc3)Nc3ccccc3[C@@H]21 [Example 153, N-Butyl-N′-((1R,2S)-2-{[(3aR,4R,9bR)-4-phenyl-2,3,3a,4,5,9b-hexahydro-1H-pyrrolo[3,2-c]quinolin-1-yl]carbonyl}cyclohexyl)urea]
11 | < 1 | CCCCCCNC(=O)N[C@@H]1CCCC[C@@H]1C(=O)N1CC[C@@H]2[C@H](c3ccccc3)Nc3ccccc3[C@@H]21 [Example 154, N-Hexyl-N′-((1R,2S)-2-{[(3aR,4R,9bR)-4-phenyl-2,3,3a,4,5,9b-hexahydro-1H-pyrrolo[3,2-c]quinolin-1-yl]carbonyl}cyclohexyl)urea]
